Source: US8247220B2, “Optical indicator for detecting bacterial pathogens” (Kimberly-Clark Worldwide, Inc., priority 2008, dated 2012)

Key:
[1] = Bacterial cell-wall components on dye-coated substrate and titration with Reichardt's dye; details: 5%, 1%, 0.2% (wt/wt) solutions (pure LPS 0.1%, 0.02%, 0.004%); both experimental set-ups
A. niger = assay: Titration of microorganism spot with Reichardt's dye solution; details: 10^5 CFU/mL, 100 μl; dye 160 mg in 10 g acetonitrile, 10 μl aliquots
[2] = tested on: Haemophilus influenzae (ATCC # 49247); assay: Reichardt's dye-treated samples with upper respiratory pathogens; details: 100 microliters
Source text: (§1) It has been observed in prior experiments that gram positive bacteria elicit a stronger de-colorization response than other types of microorganisms.

[3] = tested on: Moraxella lacunata (ATCC # 17972); assay: as above; details: 100 microliters
Source text: as §1

[4] = tested on: Streptococcus pneumoniae (ATCC # 10015); assay: as above; details: 100 microliters
Source text: as §1

[5] = tested on: Streptococcus pyogenes (ATCC # 10782); assay: as above; details: 100 microliters
Source text: as §1

vegetative organism = tested on: vegetative organism; set-up: species or system Anthracis bacillus
C. albicans = assay: Titration of microorganism spot with Reichardt's dye solution; details: 10^7 CFU/ml, 100 μl; dye 160 mg in 10 g acetonitrile, 10 μl aliquots
S. aureus protoplasts = assay: Protoplasts on label coated with Reichardt's dye; details: 100 μL aliquot, label coated with 80 mg/10 g acetonitrile, approximately 5 minutes
Procedure: An additional test to verify reaction with the cell wall was performed by creating protoplasts through enzymatic digestion of the bacterial cell wall. […] Louis, Mo.) suspended in TM buffer (0.05 M Tris-HCl, pH 7.4, 20 mM MgCl2) with 15% (w/v) of sucrose (Sigma-Aldrich, St. Louis, Mo.). The reaction was carried out for one hour at 30° C., after which the solution was centrifuged at 10,000×g, and rinsed twice with TM buffer containing 13% (w/v) sucrose according to methods detailed by Taku and Fan (The Journal of Biological Chemistry, 1979). The solution containing protoplasts was reacted (100 μL aliquot) with an Avery label coated with Reichardt's dye (80 mg/10 g acetonitrile). Untreated bacteria was diluted 10 fold in the TM/13% sucrose buffer (without lysozyme) and were placed on the label as a positive control.

Rhinovirus Type 42 = assay: Reichardt's dye-treated samples with upper respiratory viruses; details: compared with Salmonella bacterial control at a similar concentration
[6] = tested on: Influenza A (ATCC # VR-544); assay: as above; details: compared with Salmonella bacterial control at a similar concentration
P. aeruginosa = assay: Titration of microorganism spot with Reichardt's dye solution; details: 10^7 CFU/ml, 100 μl; dye 160 mg in 10 g acetonitrile, 10 μl aliquots
Salmonella = assay: Dye-coated absorbent substrate tested with Salmonella-containing liquid; details: 100 microliter aliquots on dye-coated substrate
Source text: Gibraltar Labs (Fairfield, N.J.) placed 100 microliter aliquots of the solutions onto the absorbent substrate.

G. vaginalis = assay: Titration of microorganism spot with Reichardt's dye solution; details: 10^7 CFU/ml, 100 μl; dye 160 mg in 10 g acetonitrile, 10 μl aliquots
[7] = tested on: bacterial spores such as Anthracis bacillus
S. aureus [8] = assay: Titration of microorganism spot with Reichardt's dye solution; details: 10^7 CFU/ml, 100 μl; dye 160 mg in 10 g acetonitrile, 10 μl aliquots
Source text: (§2) 10^7 CFU/ml of S. aureus.

E. coli = assay: as above; details: 10^7 CFU/ml, 100 μl; dye 160 mg in 10 g acetonitrile, 10 μl aliquots
Source text: as §2

gram-positive bacteria = assay: Visible colour change of Reichardt's dye-coated absorbent substrate, serial dilutions of bacteria; details: 100 μl aliquot on dye-coated substrate, colour change visible to the eye
S. aureus [9] = assay: Standard curve on dye-coated paper, Delta E against log CFU/mL; details: paper coated with 80 mg/10 g acetonitrile, 100 μL aliquots, spectrophotometer CIELAB
autoclaved S. aureus = assay: Autoclaved bacteria sprayed with Reichardt's dye indicator spray; details: S. aureus 10^6 CFU/mL autoclaved; spray 160 mg in 10 g isopropanol
Procedure: In order to verify that the bacterial cell wall plays a critical role in this reaction, a vial of S. aureus (10^6 CFU/mL) was autoclaved before testing with the indicator spray (160 mg Reichardt's Dye in 10 g of isopropanol). Autoclaving kills bacteria by essentially blowing the cell wall apart. The steam from the autoclave penetrates the bacteria and rips the membrane apart.

Lactobacillus = assay: Titration of microorganism spot with Reichardt's dye solution; details: 10^7 CFU/ml, 100 μl; dye 160 mg in 10 g acetonitrile, 10 μl aliquots

C[C@@H](O[C@H]1[C@H](O)[C@@H](CO)OC(O)[C@@H]1N)C(=O)O (stereo partly drawn) [Muramic acid, muramic acid]
de-colorization of Reichardt's dye by cell-wall component [1]: strongest reaction, resulting in a near instantaneous de-colorization of the dye

[O-]c1c(-c2ccccc2)cc(-[n+]2c(-c3ccccc3)cc(-c3ccccc3)cc2-c2ccccc2)cc1-c1ccccc1 [Reichardt's dye, 4-(2,4,6-triphenylpyridinium-1-yl)-2,6-diphenylphenolate]
Amount of Dye Required for Persistent Color (A. niger): 50 µL | de-colorization of dye-treated samples [2]: de-colorized | de-colorization of dye-treated samples [3]: de-colorized | de-colorization of dye-treated samples [4]: de-colorized | de-colorization of dye-treated samples [5]: de-colorized | de-colorization of the dye (vegetative organism): de-colorization occurred | Amount of Dye Required for Persistent Color (C. albicans): 70 µL | de-colorization of the dye (S. aureus protoplasts): minimal de-colorization | de-colorization of the dye (Rhinovirus Type 42): markedly less de-colorization | de-colorization of the dye [6]: markedly less de-colorization | Amount of Dye Required for Persistent Color (P. aeruginosa): 80 µL | de-colorization of the dye (Salmonella): decolorized the dye | Amount of Dye Required for Persistent Color (G. vaginalis): 90 µL | sensitivity of the dye to bacterial spores [7]: not sufficiently sensitive | Amount of Dye Required for Persistent Color (S. aureus [8]): 90 µL | Amount of Dye Required for Persistent Color (E. coli): 90 µL | lower limit for indication of gram-positive bacteria (gram-positive bacteria): 100 CFU/ml | responsiveness of the dye (Delta E) (S. aureus [9]): dose-dependent | de-colorization of the dye (autoclaved S. aureus): no de-colorization was observed | Amount of Dye Required for Persistent Color (Lactobacillus): 110 µL
